{"source": "patent US20250262241A1", "about": "“METHODS TO IMPROVE STABILITY OF VIRUS TRANSDUCTION OF y8 T CELLS AND APPLICATIONS THEREOF” (UNICET BIOTECH CO. LLC., priority 2021, published 2025)", "key": {"γδ2 T cells [1]": {"tested_on": "γδ2 T cells", "assay": "Lentivirus (GFP) transduction of γδ2 T cells with or without BX795", "assay_type": "cell-based, human", "protocol": "(§1) VSV-G pseudotyped lentiviral vectors were applied in this method. 1×10^7 293T cells were plated into a poly-D-lysine coated 100 mm dish. Next day the cells were transfected with 6 μg of pCDH-EF1-MCS-T2A-copGFP plasmid (Addgene, Plasmid #72263) or pCDH-EF1-CAR-T2A-copGFP plasmid modified from pCDH-EF1-MCS-T2A-copGFP, 4 μg of pspAx2 (Addgene, Plasmid #12260), 2 μg of pCMV-VSV-G (Addgene, Plasmid #8454) using 30 ug PEI transfection regents. After 8 hours of transfection, the cell culture medium was changed. The supernatant were collected 48 hours and 72 hours later. Concentrated the virus with Lenti-X™ Concentrator (Takara) and monitored the virus titers by transduction of 293T cells and stored the concentrated virus in −80° C. until further use.\n(§2) For lentivirus transduction, 1×10^CFU lentivirus diluted in 200 ul PBS were added in a 24-well plate which were pre-coated with RetroNectin reagent (Takara) and centrifugated by 2,000 g for 2 hours at 32° C. After centrifugation, removed the supernatant and washed the plate with PBS three times slightly.\n(§3) The plates were incubated at 37° C., 5% CO2.\n(§4) After incubation, washed the cells with FACS buffer two times and then resuspended the cells in 200 ul FACS buffer and calculated the data by FACSCalibur (BD Biosciences). The antibodies used for γδ2 T cells were: APC anti-human CD3 (Biolegend, 300412), BV421 anti-human TCR Vδ2 (Biolegend, 331428)."}, "γδ1 T cells": {"tested_on": "γδ1 T cells", "assay": "CAR related lentivirus transduction of γδ1 T cells with small inhibitors", "assay_type": "cell-based, human", "settings": "0.06 uM; control finally around 2%", "protocol": "as §2, §3\nTo test the application of these small molecule on improving the transduction rate of δδ1 T cells. We evaluated the transduction rate of δδ1 T cells with/without different dosage of small molecules."}, "γδ2 T cells [2]": {"tested_on": "γδ2 T cells", "assay": "Exhausted marker expression of γδ2 T cells cultured with/without BX795", "assay_type": "cell-based, human", "protocol": "(§5) Wash the cells once with PBS and then staining the cells with antibodies diluted in FACS buffer (PBS+1% FBS+2.5 mM EDTA) at 4° C. for 30 min. The common volume of incubated buffer was 50 μL for 2×10^cells.\nas §4"}, "[3]": {"tested_on": "γδ T cell products cultured from PBMC", "assay_type": "cell-based, human", "settings": "0.6 μM BX795, after 12 Days in vitro culture", "protocol": "as §5, §4\nThe calculated cell types included γδ2 T, γδ2 CD56+ T, γδ1 T, αβT, NKT, T helper, cytotoxic T, B and NK cells."}, "γδ2 T cells [4]": {"tested_on": "γδ2 T cells", "assay": "Differentiation of γδ2 T cells cultured with/without BX795 (flow cytometry)", "assay_type": "cell-based, human", "protocol": "as §5, §4\nOn the other hand, the terminator γδ2 T cell percentage decreased from 2.595% to around 2%."}, "TBK1": {"molecular_target": "T1, TBK1 (Homo sapiens, UniProt Q9UHD2)", "T1 sequence (Q9UHD2 1-729)": "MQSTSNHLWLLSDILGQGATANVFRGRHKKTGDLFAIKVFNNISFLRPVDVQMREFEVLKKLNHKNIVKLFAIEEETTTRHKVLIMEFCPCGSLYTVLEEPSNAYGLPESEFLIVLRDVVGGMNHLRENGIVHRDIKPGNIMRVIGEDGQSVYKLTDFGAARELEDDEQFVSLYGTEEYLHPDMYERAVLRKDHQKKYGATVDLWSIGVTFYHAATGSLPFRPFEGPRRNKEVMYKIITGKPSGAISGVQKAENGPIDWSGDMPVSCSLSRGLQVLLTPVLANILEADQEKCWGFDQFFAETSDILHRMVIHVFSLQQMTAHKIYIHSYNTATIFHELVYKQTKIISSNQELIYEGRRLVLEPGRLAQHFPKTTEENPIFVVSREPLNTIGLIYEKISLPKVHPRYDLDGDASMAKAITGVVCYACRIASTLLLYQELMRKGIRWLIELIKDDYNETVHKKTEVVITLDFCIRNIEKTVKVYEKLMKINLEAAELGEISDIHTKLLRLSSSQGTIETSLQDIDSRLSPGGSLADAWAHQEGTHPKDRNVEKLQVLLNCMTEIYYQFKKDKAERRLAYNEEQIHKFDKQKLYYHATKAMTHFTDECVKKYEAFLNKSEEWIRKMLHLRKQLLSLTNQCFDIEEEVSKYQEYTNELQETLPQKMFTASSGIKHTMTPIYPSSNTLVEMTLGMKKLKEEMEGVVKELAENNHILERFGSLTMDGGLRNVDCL", "settings": "cited from earlier work"}, "γδ2 T cells [5]": {"tested_on": "γδ2 T cells", "assay": "CAR (B7H3) related lentivirus transduction of γδ2 T cells with small inhibitors: transduction rate", "assay_type": "cell-based, human", "settings": "0.6 uM, day 10; control below 10%", "protocol": "as §1, §2\nFor the virus transduction of γδ2 T cells, seeded 1×10^PBMCs which were in vitro cultured after 48 hours in the γδ2 T cell culture medium mentioned above (Gibco serum free medium with rhIL-2 and ZOL). Added or not small inhibitors and mixed well and concentrated the cells by 800 g for 10 mins at 32° C. The plates were incubated at 37° C., 5% CO2. Discarded the small inhibitors regent by changing the cell culture medium 24 hours later.\nCalculate the cell number by an automated cell counter and the transduction rate (GFP positive rate) was analyzed by flow cytometry every 2 to 3 days. The transduction rate was monitored in the gate of γδ2 or γδ1 T cells."}, "γδ2 T cells [6]": {"tested_on": "γδ2 T cells", "assay_type": "cell-based, human", "settings": "0.6 uM", "protocol": "as §3"}}, "note": "Where “and” joins values, the source holds several entries; their conditions need not be identical. Identical values can stand only once."}
{"substance": "BX795", "values": [{"measurement": "total positive transduced γδ2 T cells", "setting": "γδ2 T cells [1]; 0.2 μM or 0.6 μM BX795", "result": "greatly increased"}, {"measurement": "final transduction rate, 2 μM compared with 0.6 μM BX795", "setting": "γδ2 T cells [1]; 2 μM BX795", "result": "not significant"}, {"measurement": "cell number of transduced γδ2 T cells", "setting": "γδ2 T cells [1]; 2 μM or 6 μM BX795, vs control group", "result": "lower than the control group"}, {"measurement": "effect on transduction rate of γδ1 T cells", "setting": "γδ1 T cells", "result": "could improve the transduction rate"}, {"measurement": "cell percentage of exhausted cell types (PD-1, LAG-3, TIGIT, TIM-3)", "setting": "γδ2 T cells [2]; BX795 treatment vs control", "result": "improved the cell percentage of all the exhausted cell types slightly"}, {"measurement": "γδ2 LAG-3+ T cell (CD3+TCRVδ2+LAG-3+), cell percentage of total lymphocytes", "setting": "γδ2 T cells [2]; cultured with BX795", "result": "85.58% and 85.77%"}, {"measurement": "γδ2 PD-1+ T cell (CD3+TCRVδ2+PD-1+), cell percentage of total lymphocytes", "setting": "γδ2 T cells [2]; cultured with BX795", "result": "11.83% and 11.17%"}, {"measurement": "γδ2 T cell (CD3+TCRVδ2+), cell percentage of total lymphocytes", "setting": "γδ2 T cells [2]; cultured with BX795", "result": "85.75% and 85.94%"}, {"measurement": "γδ2 TIGIT+ T cell (CD3+TCRVδ2+TIGIT+), cell percentage of total lymphocytes", "setting": "γδ2 T cells [2]; cultured with BX795", "result": "23.24% and 26.98%"}, {"measurement": "γδ2 TIM-3+ T cell (CD3+TCRVδ2+TIM-3+), cell percentage of total lymphocytes", "setting": "γδ2 T cells [2]; cultured with BX795", "result": "84.55% and 84.91%"}, {"measurement": "B cell (CO3−TCRVδ2−CD19+), cell percentage of total lymphocytes", "setting": "[3]", "result": "0.27% and 0.32%"}, {"measurement": "NK cell (CD3−TCRVδ2−CD56+), cell percentage of total lymphocytes", "setting": "[3]", "result": "2.66% and 2.20%"}, {"measurement": "NKT cell (CD3+TCRVδ2−TCRVδ1−TCRαβ+CD56+), cell percentage of total lymphocytes", "setting": "[3]", "result": "0.34% and 0.31%"}, {"measurement": "T helper cell (CD3+TCRVδ2−TCRVδ1− TCRαβ+CD56−CD8−CD4+), cell percentage of total lymphocytes", "setting": "[3]", "result": "5.26% and 5.40%"}, {"measurement": "cell types of the final γδ T cell products vs control group", "setting": "[3]", "result": "comparable cell types with the control group"}, {"measurement": "αβ T cell (CD3+TCRVδ2−TCRVδ1−TCRαβ+), cell percentage of total lymphocytes", "setting": "[3]", "result": "7.22% and 7.20%"}, {"measurement": "γδ2 CD56+ T cell (CD3+TCRVδ2+ CD56+), cell percentage of total lymphocytes", "setting": "[3]", "result": "1.89% and 1.69%"}, {"measurement": "γδ2 T cell (CD3+TCRVδ2+), cell percentage of total lymphocytes", "setting": "[3]", "result": "85.93% and 86.52%"}, {"measurement": "changes in differentiation of γδ2 T cell subtypes", "setting": "γδ2 T cells [4]; BX795 treatment vs control", "result": "No significant changes were found"}, {"measurement": "central memory γδ2 T cells percentage rate", "setting": "γδ2 T cells [4]; adding BX795, control 1.865%", "result": 4.225, "unit": "%"}, {"measurement": "terminator γδ2 T cell percentage", "setting": "γδ2 T cells [4]; adding BX795, control 2.595%", "result": "around 2%"}, {"measurement": "Central memory γδ2 cell (CD3+TCRVδ2+ CD27+CD45RA−), cell percentage of total lymphocytes", "setting": "γδ2 T cells [4]; cultured with BX795", "result": "3.88% and 4.57%"}, {"measurement": "Effector γδ2 T cell (CD3+TCRVδ2+ CD27−CD45RA−), cell percentage of total lymphocytes", "setting": "γδ2 T cells [4]; cultured with BX795", "result": "81.23% and 80.00%"}, {"measurement": "Terminator γδ2 T cell (CD3+TCRVδ2+ CD27−CD45RA+), cell percentage of total lymphocytes", "setting": "γδ2 T cells [4]; cultured with BX795", "result": "1.91% and 2.03%"}, {"measurement": "naive γδ2 T cell (CD3+TCRVδ2+ CD27+CD45RA+), cell percentage of total lymphocytes", "setting": "γδ2 T cells [4]; cultured with BX795", "result": "0.25% and 0.10%"}, {"measurement": "γδ2 CD226+T cell (CD3+TCRVδ2+CD226+), cell percentage of total lymphocytes", "setting": "γδ2 T cells [4]; cultured with BX795", "result": "87.25% and 86.59%"}, {"measurement": "γδ2 NKG2D+T cell (CD3+TCRVδ2+NKG2D+), cell percentage of total lymphocytes", "setting": "γδ2 T cells [4]; cultured with BX795", "result": "87.17% and 86.50%"}, {"measurement": "γδ2 T cell (CD3+TCRVδ2+), cell percentage of total lymphocytes", "setting": "γδ2 T cells [4]; cultured with BX795", "result": "87.25% and 86.68%"}, {"measurement": "IC50", "setting": "TBK1", "result": 6, "unit": "nM"}, {"measurement": "transduction rate", "setting": "γδ2 T cells [5]", "result": "around 40%"}, {"measurement": "cell growth of γδ2 T", "setting": "γδ2 T cells [6]", "result": "did not influence the cell growth"}]}
